The values that follow come from patent US9738655B2, “Tetrahydroisoquinolines containing substituted azoles as factor XIa inhibitors” (BRISTOL-MYERS SQUIBB COMPANY, priority 2013, dated 2017).

Where a name gives a salt, the structure may show the parent alone.

In one experiment the target is purified human Factor XIa (Homo sapiens (Human), UniProt P03951). In words: Factor XIa enzyme inhibition assay (chromogenic substrate S-2366). The note with it: read-out: Factor XIa Ki; measured at 25° C.
Chain of purified human Factor XIa (P03951 388-625): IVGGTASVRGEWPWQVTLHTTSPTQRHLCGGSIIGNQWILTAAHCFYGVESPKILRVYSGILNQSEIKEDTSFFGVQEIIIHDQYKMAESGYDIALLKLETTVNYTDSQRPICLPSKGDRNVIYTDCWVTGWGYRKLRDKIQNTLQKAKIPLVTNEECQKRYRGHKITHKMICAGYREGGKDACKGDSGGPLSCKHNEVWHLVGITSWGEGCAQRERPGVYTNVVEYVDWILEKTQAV
Chain of purified human Factor XIa (P03951 19-387 partner): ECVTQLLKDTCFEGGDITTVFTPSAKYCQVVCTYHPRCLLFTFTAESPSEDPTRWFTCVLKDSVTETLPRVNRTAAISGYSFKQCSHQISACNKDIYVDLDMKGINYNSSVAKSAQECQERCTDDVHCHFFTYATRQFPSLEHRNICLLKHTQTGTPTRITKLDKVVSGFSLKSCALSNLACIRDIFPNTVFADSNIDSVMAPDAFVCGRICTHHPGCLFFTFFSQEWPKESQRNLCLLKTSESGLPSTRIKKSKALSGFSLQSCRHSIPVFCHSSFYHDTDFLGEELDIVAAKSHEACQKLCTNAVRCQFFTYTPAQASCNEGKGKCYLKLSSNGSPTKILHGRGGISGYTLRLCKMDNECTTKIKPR
As a reminder, the Ki is the dissociation constant of the complex between target and ligand, obtained from inhibition or displacement. For `O=C(O)c1ccc(NC(=O)C2c3cccc(-c4cnc5[nH]ccc5c4)c3CCN2C(=O)c2cn(-c3cccc(Cl)c3F)nn2)cc1` (stereo not drawn) [Example 181, 4-(2-(1-(3-chloro-2-fluorophenyl)-1H-1,2,3-triazole-4-carbonyl)-5-(1H-pyrrolo[2,3-b]pyridin-5-yl)-1,2,3,4-tetrahydroisoquinoline-1-carboxamido)benzoic acid, TFA salt], the Ki was < 5 nM. As to `O=C(O)c1ccc(NC(=O)C2c3cccc(-c4ccccc4CN4CCOCC4)c3CCN2C(=O)c2cn(-c3cccc(Cl)c3F)nn2)cc1` (stereo not drawn) [Example 179, 4-(2-(1-(3-chloro-2-fluorophenyl)-1H-1,2,3-triazole-4-carbonyl)-5-(2-(morpholinomethyl)phenyl)-1,2,3,4-tetrahydroisoquinoline-1-carboxamido)benzoic acid, TFA salt], the Ki turned out to be 5.92 nM. Still for that read-out and setting: to `Cn1ncc2c(-c3cccc4c3CCN(C(=O)c3cn(-c5cccc(Cl)c5F)nn3)C4C(=O)Nc3ccc(C(=O)O)cc3)cccc21` (stereo not drawn) [Example 169, 4-(2-(1-(3-chloro-2-fluorophenyl)-1H-1,2,3-triazole-4-carbonyl)-5-(1-methyl-1H-indazol-4-yl)-1,2,3,4-tetrahydroisoquinoline-1-carboxamido)benzoic acid] belongs < 5 nM; to `CCOc1ccc(-c2cccc3c2CCN(C(=O)c2cn(-c4cccc(Cl)c4F)nn2)C3C(=O)Nc2ccc(C(=O)O)cc2)cn1` (stereo not drawn) [Example 178, 4-(2-(1-(3-chloro-2-fluorophenyl)-1H-1,2,3-triazole-4-carbonyl)-5-(6-ethoxypyridin-3-yl)-1,2,3,4-tetrahydroisoquinoline-1-carboxamido)benzoic acid, TFA salt], < 5 nM; to `O=C(O)c1ccc(NC(=O)C2c3cccc(N4CCC(O)CC4)c3CCN2C(=O)c2cn(-c3cccc(Cl)c3F)nn2)cc1` (stereo not drawn) [Example 85, 4-(2-(1-(3-chloro-2-fluorophenyl)-1H-1,2,3-triazole-4-carbonyl)-5-(4-hydroxypiperidin-1-yl)-1,2,3,4-tetrahydroisoquinoline-1-carboxamido)benzoic acid, TFA salt], < 5 nM.

`O=C(O)c1ccc(NC(=O)C2c3cccc(-c4ccc5c(c4)CCNC5)c3CCN2C(=O)c2cn(-c3cccc(Cl)c3F)nn2)cc1` (stereo not drawn) [Example 40, 4-(2-(1-(3-chloro-2-fluorophenyl)-1H-1,2,3-triazole-4-carbonyl)-1,1′,2,2′,3,3′,4,4′-octahydro-[5,6′-biisoquinoline]-1-carboxamido)benzoic acid, TFA salt]: the Ki was < 5 nM. Still for that read-out and setting: the result for `O=C(O)c1ccc(NC(=O)[C@H]2c3cccc(N4CCN(C5COC5)CC4)c3CCN2C(=O)[C@H]2CC(c3cccc(Cl)c3F)=NO2)cc1` [Example 228, 4-((R)-2-((R)-3-(3-Chloro-2-fluorophenyl)-4,5-dihydroisoxazole-5-carbonyl)-5-(4-(oxetan-3-yl)piperazin-1-yl)-1,2,3,4-tetrahydroisoquinoline-1-carboxamido)benzoic acid, 2 TFA salt] reads < 5 nM; that for `O=C(O)c1ccc(NC(=O)C2c3cccc(-c4ccc(F)c(C(=O)N5CCCC5)c4)c3CCN2C(=O)c2cn(-c3cccc(Cl)c3F)nn2)cc1` (stereo not drawn) [Example 184, 4-(2-(1-(3-chloro-2-fluorophenyl)-1H-1,2,3-triazole-4-carbonyl)-5-(4-fluoro-3-(pyrrolidine-1-carbonyl)phenyl)-1,2,3,4-tetrahydroisoquinoline-1-carboxamido)benzoic acid], < 5 nM.

Staying with this experiment, now noted: read-out: Factor XIa Ki; measured at 25° C.; TFA salt.
With `COC1CCN(c2cccc3c2CCN(C(=O)C2CCN(c4cccc(Cl)c4)C2)C3C(=O)Nc2ccc(C(=O)O)cc2)CC1` (stereo not drawn) [Example 258, 4-(2-(1-(3-chlorophenyl)pyrrolidine-3-carbonyl)-5-(4-methoxypiperidin-1-yl)-1,2,3,4-tetrahydroisoquinoline-1-carboxamido)benzoic acid, TFA salt], the Ki turned out to be 127 nM.
